Consider three compounds from patent publication US4563476A, “Substituted 5-hydroxy-2,3-dihydrobenzofurans and analogs thereof useful as anti-inflammatory agents” (Merck & Co., Inc., priority 1983, dated 1986).

The subject of assay [1] is inflammatory responses elicited by topically applied phorbol myristate acetate (PMA) or topically applied arachidonic acid (AA). Put plainly: Topical mouse ear assay (TME), edema by wet weight. The assay is classed as in vivo, mice. To be noted: PMA or AA not specified. As to the method: The topical mouse ear assay (TME) is the method by which the novel compounds of the present invention are evaluated for its effect on inflammatory responses elicited by topically applied phorbol myristate acetate (PMA) or topically applied arachidonic acid (AA). The inflammatory responses may be in the form of edema (measured by wet weight); vascular permeability (measured by ^125 I-BSA accumulation); or PMN infiltration (measured by myeloperoxidase activity).
Method: The right ears of mice (5 mice per group) were treated topically with either […] or 1000 μg AA alone or with the test compound in 25 μl of vehicle. The vehicle was water/pyridine/acetone (1:2:97). A control group of mice received the vehicle only. The mice were allowed food and water ad libitum during the treatment period; 2 hours for AA and 4 hours for PMA. The mice were sacrificed by cervical dislocation and a 6 mm diameter disc of tissue punched from both the treated and untreated ears. The tissue biopsies were immediately weighed and the weight increase of the treated ear relative to the weight of the untreated ear determined.
For the determination of vascular permeability, […] ^125 I-bovine serum albumin (^125 I-BSA) was administered in 0.5 ml phosphate buffered saline 15 min prior to the topical application. At the termination of the experiment, the amount of radioactivity in both the treated and untreated ear biopsies was determined and the increased amount of radioactivity in the treated tissue relative to the amount of radioactive in the untreated tissue determined.
As a measure of PMN infiltration, the amount of myeloperoxidase (MPO) activity in the same tissues was determined. The tissue biopsies were homogenized into 1 ml 0.5% hexadecyltrimethylammonium bromide and centrifuged for 45 min. at 1200×g. Aliquots 40 μl, of the supernatant phases were assayed for MPO activity by a colorimetric method devised by H. Dougherty for automated Titertek analysis. The MPO activity is expressed as the OD450 of the treated ear homogenate minus the OD450 of the non-treated ear homogenate.
All of the data are expressed as the mean ±SEM, N=5 mice/group.

For assay [2] the test system is unchanged. The note with it: previously established; cited from earlier work.

Take `CC(=O)c1ccc(NCc2cc3c(cc2O)CCO3)cc1` [A, 5-Hydroxy-6-(4-acetylphenyl)aminomethyl-2,3-dihydrobenzofuran]: the “Edema (% inhibition)” value in assay [1] (Dosage 50 μg) came to 44%; in assay [1] (Dosage 100 μg), 45%; in assay [1] (Dosage 200 μg), 60%; in assay [1] (Dosage 400 μg), 76%.

As for `COc1ccc2c(c1)c(CC(=O)O)c(C)n2C(=O)c1ccc(Cl)cc1` [Indomethacin, indomethacin], the “Edema (% inhibition)” value in assay [1] (Dosage 50 μg) was determined as 24%; in assay [1] (Dosage 100 μg) it was 42%; in assay [1] (Dosage 200 μg), 46%; in assay [1] (Dosage 400 μg), 85%. Further, in assay [2], the “activity in the topical mouse ear assay” value was “active”.

Regarding `C[C@@H]1C[C@H]2[C@@H]3CCC4=CC(=O)C=C[C@]4(C)[C@@]3(F)[C@@H](O)C[C@]2(C)[C@@]1(O)C(=O)CO` [dexamethasone], the “activity in the topical mouse ear assay” value in assay [2] is recorded as “active”.
